Entries after “also recorded” stand apart in the source; their conditions may differ.
Legend:
[1] = test system: rat retinal ganglion cells; assay: glutamate-induced rat retinal ganglion cell death; format: cell-based; conditions: 10nM for 30 minutes, then 100µM glutamate, viable cells counted after 3 days; Figure 1
Description: Retinal ganglion cells were selected as they represent the retinal cell that degenerates in glaucoma. MK-801 was selected as a reference NMDA antagonist.
Isolation of rat retinal ganglion cells and assessment of viability in the absence and presence of glutamate was described in Pang, et al., "Protection by Eliprodil Against Excitotoxicity in Cultured Rat Retinal Ganglion Cells", Investigative Ophthalmology & Visual Science, Vol. 40(6), pp. 1170-1176, May, 1999. Briefly, isolated cultured rat retinal ganglion cells were treated with racemic (R/S) eliprodil (10nM), R-eliprodil (10nM), or S-eliprodil (10nM) for thirty (30) minutes followed by the addition of 100µM glutamate. Survival was determined by counting viable cells after an incubation period of three (3) days. Survival with vehicle alone defines 100%. […] S-eliprodil was ineffective.

[2] = test system: pentobarbital-anesthetized cats; assay: hemodynamic and electrocardiographic parameters in anesthetized cats; conditions: increasing doses 0.01 to 3 mg/kg, five-minute intravenous infusion every 20 minutes
Description: (§1) Eliprodil and its enantiomers were evaluated for their potential for prolonging QTc by determining their dose-related effects on cardiac electrical activity. Two different experimental models were utilized for these studies: (1) Action potential duration in piglet Purkinje fibers from the heart and (2) Electrocardiographic parameters in pentobarbital anesthetized cats.
Eliprodil and its two enantiomers were also evaluated for hemodynamic and electrocardiographic parameters in pentobarbital-anesthetized cats. […] Compounds were administered at increasing doses from 0.01 to 3 mg/kg as a five-minute intravenous infusion every 20 minutes. […]

histamine H1 = histamine H1 (Homo sapiens, UniProt P35367); assay: binding studies, histamine H1
Description: (§2) The role of these pharmacological activities in the neuroprotective efficacy has not been established for this drug.

hippocampal slices = assay: recovery of synaptic transmission after hypoxia in hippocampal slices; format: cell-based; conditions: for efficacy for recovery of excitatory post synaptic potentials following hypoxia: at a comparable dose
Description: Dose-response relations comparing the efficacy of Racemic (R/S)-eliprodil (open circles), R-eliprodil (closed circles) and memantine (closed diamonds) for their ability to improve recovery of synaptic transmission following a 15 minute period of hypoxia in hippocampal slices in vitro (Figure 2).
Preparation of the hypoxic hippocampal slice preparation has been reported by Reyes et al., "Eliprodil, a non-competitive, NR2B-selective NMDA antagonist, protects pyramidal neurons in hippocampal slices from hypoxic/ischemic damage", Brain Research, Vol. 782, pp. 212-218, 1998. Briefly, hippocampal slices were prepared acutely the same day as the experiment, and each compound was bath applied 30 minutes prior to delivery of the 15 minute hypoxic insult. Recovery of evoked epsps is expressed as percent of the initial, pre-hypoxia epsp maximum slope, with this percent recovery assessed 60 minutes after reoxygenation. Each point is the mean ± S.E.M. of 8 slices at each dose, and EC50's were calculated from a single-active site Lineweaver-Burke linear fit.

β3-adrenergic = β3-adrenergic (Homo sapiens, UniProt P13945); assay: binding studies, β3-adrenergic
Description: as §2

sigma receptors = conditions: rat brain; U.S. Patent No. 5,023,266; cited from earlier work
5-HT2A = 5-HT2A (Homo sapiens, UniProt P28223); assay: binding studies, 5-HT2A
Description: as §2

5-HT1A = biological target: T1, 5-HT1A (Homo sapiens, UniProt P08908); assay: binding studies, 5-HT1A
T1 sequence (P08908 1-422): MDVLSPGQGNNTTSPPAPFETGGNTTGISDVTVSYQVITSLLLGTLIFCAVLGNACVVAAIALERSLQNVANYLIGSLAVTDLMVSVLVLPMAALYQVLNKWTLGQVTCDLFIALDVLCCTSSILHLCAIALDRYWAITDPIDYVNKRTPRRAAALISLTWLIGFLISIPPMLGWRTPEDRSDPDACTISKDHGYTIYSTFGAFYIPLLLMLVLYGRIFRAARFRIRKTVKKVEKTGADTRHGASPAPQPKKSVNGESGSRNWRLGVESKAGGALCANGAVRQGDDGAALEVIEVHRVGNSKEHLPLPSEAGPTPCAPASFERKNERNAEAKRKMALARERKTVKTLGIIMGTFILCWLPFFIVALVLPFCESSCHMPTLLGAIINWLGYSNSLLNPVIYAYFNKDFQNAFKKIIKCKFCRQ
Description: as §2

[3] = test system: piglet Purkinje fibers from the heart; assay: action potential duration in piglet Purkinje fibers; conditions: for maximum effect on APD90: comparison between compounds; for concentration with statistically significant prolongation of APD90: action potential duration at 90% repolarization
Description: as §1

5-HT7 = 5-HT7 (Homo sapiens, UniProt P34969); assay: binding studies, 5-HT7
Description: as §2

histamine H2 = histamine H2 (Homo sapiens, UniProt P25021); assay: binding studies, histamine H2
Description: as §2

[4] = test system: lateral vestibular nucleus; assay: NMDA-induced firing rate of the lateral vestibular nucleus in vivo
humans = conditions: following some doses in humans; cited from earlier work
5-HT uptake = 5-HT uptake (Homo sapiens, UniProt P31645); assay: binding studies, 5-HT uptake
Description: as §2

[5] = U.S. Patent No. 5,547,963; cited from earlier work
α1-adrenergic = assay: binding studies, α1-adrenergic
Description: as §2

NMDA receptor = NMDA receptor (Homo sapiens, UniProt Q05586+Q13224); assay: electrophysiology and ligand displacement studies at the NMDA receptor; format: binding
[6] = plasma level in the anesthetized cat protocol; format: in vivo; conditions: 0.1 mg/kg dose, intravenous infusion

NMDA receptor, sequence (Q13224 27-1484, other chains not shown): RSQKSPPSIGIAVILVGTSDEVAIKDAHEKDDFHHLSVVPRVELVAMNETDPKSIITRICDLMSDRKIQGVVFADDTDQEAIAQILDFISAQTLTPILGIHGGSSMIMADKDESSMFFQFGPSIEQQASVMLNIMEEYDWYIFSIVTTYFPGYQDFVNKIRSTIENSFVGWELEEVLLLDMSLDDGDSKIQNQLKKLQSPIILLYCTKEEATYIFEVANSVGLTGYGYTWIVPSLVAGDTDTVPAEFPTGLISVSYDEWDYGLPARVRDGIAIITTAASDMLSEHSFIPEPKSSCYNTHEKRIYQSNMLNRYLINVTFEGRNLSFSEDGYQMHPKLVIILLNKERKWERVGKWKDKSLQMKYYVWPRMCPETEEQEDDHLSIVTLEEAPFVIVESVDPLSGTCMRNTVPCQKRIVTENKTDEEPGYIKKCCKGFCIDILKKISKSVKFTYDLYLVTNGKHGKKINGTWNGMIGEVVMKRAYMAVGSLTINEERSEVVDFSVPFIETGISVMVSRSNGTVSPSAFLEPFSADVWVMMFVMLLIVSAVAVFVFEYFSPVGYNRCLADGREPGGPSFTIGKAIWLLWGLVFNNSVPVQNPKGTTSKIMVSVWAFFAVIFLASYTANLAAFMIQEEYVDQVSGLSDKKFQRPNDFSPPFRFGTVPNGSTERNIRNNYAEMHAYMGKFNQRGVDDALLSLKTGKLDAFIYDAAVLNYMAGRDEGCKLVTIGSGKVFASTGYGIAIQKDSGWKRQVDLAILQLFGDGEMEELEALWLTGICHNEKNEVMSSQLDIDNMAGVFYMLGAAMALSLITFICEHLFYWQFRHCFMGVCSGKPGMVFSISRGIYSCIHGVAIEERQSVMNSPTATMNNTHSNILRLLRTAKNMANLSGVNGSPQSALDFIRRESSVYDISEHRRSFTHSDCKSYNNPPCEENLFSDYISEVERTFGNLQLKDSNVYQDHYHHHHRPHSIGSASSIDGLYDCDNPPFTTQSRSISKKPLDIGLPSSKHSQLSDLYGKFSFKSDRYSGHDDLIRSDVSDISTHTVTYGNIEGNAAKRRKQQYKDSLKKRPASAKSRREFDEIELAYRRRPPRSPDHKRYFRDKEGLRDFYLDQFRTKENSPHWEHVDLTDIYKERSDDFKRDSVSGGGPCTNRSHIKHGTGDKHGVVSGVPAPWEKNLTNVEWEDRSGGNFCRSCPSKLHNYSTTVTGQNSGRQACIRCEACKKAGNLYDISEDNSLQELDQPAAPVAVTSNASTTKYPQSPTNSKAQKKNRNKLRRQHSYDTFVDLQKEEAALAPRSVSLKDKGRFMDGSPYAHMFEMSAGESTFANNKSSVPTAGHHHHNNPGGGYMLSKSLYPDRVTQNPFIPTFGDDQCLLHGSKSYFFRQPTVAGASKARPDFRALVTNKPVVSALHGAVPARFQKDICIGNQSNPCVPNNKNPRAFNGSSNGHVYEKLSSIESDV
5-HT uptake, sequence (P31645 whole entry): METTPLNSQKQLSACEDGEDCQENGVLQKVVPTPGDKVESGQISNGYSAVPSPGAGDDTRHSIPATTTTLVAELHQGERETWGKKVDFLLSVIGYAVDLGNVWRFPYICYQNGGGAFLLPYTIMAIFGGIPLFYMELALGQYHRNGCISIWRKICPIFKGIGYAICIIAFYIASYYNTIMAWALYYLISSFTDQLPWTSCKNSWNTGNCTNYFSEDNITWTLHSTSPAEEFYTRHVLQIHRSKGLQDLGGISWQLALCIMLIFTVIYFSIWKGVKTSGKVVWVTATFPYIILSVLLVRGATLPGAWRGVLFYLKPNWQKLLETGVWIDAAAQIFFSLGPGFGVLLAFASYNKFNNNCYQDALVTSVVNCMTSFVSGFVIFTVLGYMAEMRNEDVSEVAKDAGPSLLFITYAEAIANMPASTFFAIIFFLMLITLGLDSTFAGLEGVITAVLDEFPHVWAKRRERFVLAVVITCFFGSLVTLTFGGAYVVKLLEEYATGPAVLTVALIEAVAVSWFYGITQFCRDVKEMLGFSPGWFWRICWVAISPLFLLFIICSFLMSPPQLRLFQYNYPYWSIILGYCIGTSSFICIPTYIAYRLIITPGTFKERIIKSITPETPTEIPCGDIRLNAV
histamine H2, sequence (P25021 whole entry): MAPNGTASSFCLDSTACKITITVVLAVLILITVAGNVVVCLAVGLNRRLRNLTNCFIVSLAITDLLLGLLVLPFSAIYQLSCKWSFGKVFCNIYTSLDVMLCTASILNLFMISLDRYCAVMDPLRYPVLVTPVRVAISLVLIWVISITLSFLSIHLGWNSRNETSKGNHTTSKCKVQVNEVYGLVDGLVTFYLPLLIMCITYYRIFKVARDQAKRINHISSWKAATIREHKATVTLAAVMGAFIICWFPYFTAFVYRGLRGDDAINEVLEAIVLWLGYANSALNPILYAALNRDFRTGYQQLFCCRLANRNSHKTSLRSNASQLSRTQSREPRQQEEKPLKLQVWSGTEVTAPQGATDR
β3-adrenergic, sequence (P13945 whole entry): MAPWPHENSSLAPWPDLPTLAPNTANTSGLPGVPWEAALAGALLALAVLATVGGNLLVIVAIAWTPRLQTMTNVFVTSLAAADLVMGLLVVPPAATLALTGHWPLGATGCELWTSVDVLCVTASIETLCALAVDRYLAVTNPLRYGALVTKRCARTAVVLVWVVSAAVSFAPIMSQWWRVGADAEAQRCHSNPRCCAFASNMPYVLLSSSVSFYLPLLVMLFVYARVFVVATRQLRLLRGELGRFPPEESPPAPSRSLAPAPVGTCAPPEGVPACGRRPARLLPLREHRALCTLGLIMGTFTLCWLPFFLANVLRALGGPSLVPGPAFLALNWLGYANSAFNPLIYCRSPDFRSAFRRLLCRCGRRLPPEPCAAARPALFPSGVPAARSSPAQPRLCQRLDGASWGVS
5-HT7, sequence (P34969 whole entry, species assumed): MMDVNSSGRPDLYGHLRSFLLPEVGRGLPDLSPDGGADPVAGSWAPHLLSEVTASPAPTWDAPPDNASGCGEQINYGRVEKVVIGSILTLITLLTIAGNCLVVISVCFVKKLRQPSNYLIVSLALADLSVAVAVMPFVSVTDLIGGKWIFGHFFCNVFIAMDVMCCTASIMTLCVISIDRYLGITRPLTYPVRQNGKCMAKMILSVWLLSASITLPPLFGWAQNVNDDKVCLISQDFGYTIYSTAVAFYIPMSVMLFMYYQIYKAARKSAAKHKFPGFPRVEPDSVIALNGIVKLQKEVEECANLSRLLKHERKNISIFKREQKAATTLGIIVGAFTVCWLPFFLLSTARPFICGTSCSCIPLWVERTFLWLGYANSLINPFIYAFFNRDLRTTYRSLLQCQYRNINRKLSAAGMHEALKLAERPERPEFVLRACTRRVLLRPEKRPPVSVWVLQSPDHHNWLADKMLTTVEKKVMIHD
5-HT2A, sequence (P28223 whole entry): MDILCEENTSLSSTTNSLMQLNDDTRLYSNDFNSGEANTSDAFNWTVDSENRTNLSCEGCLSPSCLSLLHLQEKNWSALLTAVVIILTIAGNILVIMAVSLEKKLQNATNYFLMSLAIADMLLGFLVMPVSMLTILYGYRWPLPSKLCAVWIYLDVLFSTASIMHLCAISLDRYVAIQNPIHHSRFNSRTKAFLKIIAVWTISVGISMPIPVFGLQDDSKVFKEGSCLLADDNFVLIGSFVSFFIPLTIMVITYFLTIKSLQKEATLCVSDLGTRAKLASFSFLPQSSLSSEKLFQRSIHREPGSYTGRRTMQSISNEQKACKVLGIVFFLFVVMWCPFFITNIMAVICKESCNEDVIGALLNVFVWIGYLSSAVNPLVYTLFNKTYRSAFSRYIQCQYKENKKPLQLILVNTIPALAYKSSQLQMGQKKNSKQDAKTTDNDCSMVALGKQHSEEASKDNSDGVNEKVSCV
histamine H1, sequence (P35367 whole entry): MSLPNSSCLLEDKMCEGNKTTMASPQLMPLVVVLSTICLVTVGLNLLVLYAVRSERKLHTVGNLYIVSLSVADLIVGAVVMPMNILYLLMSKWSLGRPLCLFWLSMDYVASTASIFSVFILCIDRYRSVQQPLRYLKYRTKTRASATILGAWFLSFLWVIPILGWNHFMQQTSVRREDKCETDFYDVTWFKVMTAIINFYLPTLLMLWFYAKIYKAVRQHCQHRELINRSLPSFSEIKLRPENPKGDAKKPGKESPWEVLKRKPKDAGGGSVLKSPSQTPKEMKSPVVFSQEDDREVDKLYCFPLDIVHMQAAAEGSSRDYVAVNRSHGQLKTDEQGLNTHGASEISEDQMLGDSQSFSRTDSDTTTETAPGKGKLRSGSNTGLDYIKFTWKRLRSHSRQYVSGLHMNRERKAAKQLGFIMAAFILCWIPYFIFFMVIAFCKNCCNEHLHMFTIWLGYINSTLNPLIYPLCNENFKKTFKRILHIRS

Structure (SMILES) | neuroprotective effect (survival of retinal ganglion cells) [1] | Threshold Dose, Heart Rate Decrease [2] [mg/kg] | Threshold Dose, Mean Blood Pressure Decrease [2] [mg/kg] | Threshold Dose, QTc Prolongation [2] [mg/kg] | efficacy for recovery of excitatory post synaptic potentials following hypoxia (hippocampal slices) | maximum effect on APD90 [3] | inhibition of NMDA-induced firing rate [4] | neurotrophic effects [5] | concentration with statistically significant prolongation of APD90 [3] [nM] | Ki (NMDA receptor) [µM] | further results
OC(CN1CCC(Cc2ccc(F)cc2)CC1)c1ccc(Cl)cc1 (racemic) [Eliprodil] | marked neuroprotective activity | 0.1 | 1.0 | 0.03 | less effective | equal to that of S(+) eliprodil | strongly inhibit | Equipotency | – | – | affinity (histamine H1): sub-micromolar; affinity (β3-adrenergic): sub-micromolar; binding to sigma receptors (sigma receptors): potently bind; affinity (5-HT2A): sub-micromolar; affinity (5-HT1A): sub-micromolar; affinity (5-HT7): sub-micromolar; affinity (histamine H2): sub-micromolar; QTc prolongation (humans): asymptomatic QTc prolongation; affinity (5-HT uptake): sub-micromolar; affinity (α1-adrenergic): sub-micromolar
O[C@@H](CN1CCC(Cc2ccc(F)cc2)CC1)c1ccc(Cl)cc1 [R-eliprodil, R-α-(4-chlorophenyl)-4-(4-fluorophenylmethyl)-1-peperidineethanol] | marked neuroprotective activity; also recorded: as efficacious as a protectant as racemic eliprodil | 0.3 | 1.0 | 0.1 | substantial recovery; also recorded: more efficacious than either racemic or S-eliprodil | less than that seen with S(+) eliprodil | strongly inhibit | Equipotency | ≥ 100 | 0.2 | potency for recovery of evoked epsps (EC50 comparison) (hippocampal slices; bath applied 30 minutes before 15 minute hypoxia, recovery 60 minutes after reoxygenation, p<0.05, Figure 2): statistically significantly more potent; plasma level [6]: 34.9 ± 2.8 ng/mL
O[C@H](CN1CCC(Cc2ccc(F)cc2)CC1)c1ccc(Cl)cc1 [S-eliprodil] | ineffective | 0.1 | 1.0 | 0.01 | less effective | – | almost inactive at the highest dose tested | Equipotency | ≥ 30 | 10 | –

Source: patent publication EP1280528B1, “R-ELIPRODIL FOR TREATING GLAUCOMA” (Alcon, Inc, priority 2000, dated 2001)
